Assay results from US9408835B2, “Pharmaceutical composition for oral administration” (ASTELLAS PHARMA INC., priority 2013, dated 2016).
Values after ≈ are worked out from the molar mass of the structure shown. Read-outs that look alike come from different tables or passages of the source.

Legend:
[1] = Solubility of compound A in dissolution test fluids and water; type: physicochemical
Janus kinase 3 = target: T1, Janus kinase 3 (Homo sapiens, UniProt P52333); details: reported in Patent literature 1; cited from earlier work
T1 sequence (P52333 1-1124): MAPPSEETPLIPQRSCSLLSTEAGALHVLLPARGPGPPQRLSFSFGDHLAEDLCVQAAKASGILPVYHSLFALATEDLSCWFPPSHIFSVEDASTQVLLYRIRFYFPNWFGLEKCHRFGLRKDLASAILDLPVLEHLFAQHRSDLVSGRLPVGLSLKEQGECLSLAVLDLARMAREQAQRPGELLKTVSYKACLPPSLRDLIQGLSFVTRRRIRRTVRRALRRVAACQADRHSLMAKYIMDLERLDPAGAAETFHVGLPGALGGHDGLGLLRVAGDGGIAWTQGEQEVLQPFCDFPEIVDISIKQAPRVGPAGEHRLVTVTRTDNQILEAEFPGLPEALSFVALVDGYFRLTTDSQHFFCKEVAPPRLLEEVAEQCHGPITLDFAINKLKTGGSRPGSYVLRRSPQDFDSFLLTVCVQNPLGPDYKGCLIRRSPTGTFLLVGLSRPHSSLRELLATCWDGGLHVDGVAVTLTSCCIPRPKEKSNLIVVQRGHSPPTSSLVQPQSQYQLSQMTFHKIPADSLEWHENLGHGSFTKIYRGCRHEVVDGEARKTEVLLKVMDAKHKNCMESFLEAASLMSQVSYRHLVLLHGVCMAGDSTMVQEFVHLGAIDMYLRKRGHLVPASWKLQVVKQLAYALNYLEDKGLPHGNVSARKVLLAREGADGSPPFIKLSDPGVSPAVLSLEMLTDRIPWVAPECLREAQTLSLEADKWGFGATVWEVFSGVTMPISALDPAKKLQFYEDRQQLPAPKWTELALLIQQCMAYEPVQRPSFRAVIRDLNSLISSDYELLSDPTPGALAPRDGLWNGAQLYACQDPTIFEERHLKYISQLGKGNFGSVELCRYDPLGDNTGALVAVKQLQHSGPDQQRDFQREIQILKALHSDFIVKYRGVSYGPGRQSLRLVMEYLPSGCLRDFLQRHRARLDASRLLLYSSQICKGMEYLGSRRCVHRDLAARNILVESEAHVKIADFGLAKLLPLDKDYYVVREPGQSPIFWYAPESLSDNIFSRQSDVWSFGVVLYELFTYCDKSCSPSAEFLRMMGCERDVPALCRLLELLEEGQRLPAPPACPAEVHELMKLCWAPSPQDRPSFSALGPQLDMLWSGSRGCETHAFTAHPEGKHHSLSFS

difference in solubility between acidic and neutral pH range ([1]; JP1 pH 1.2 vs pH 6.8): about 1,000 times
solubility ([1]; Japanese Pharmacopoeia, aqueous buffer, 2nd fluid for dissolution test JP2 (pH 6.8), read-out: solubility at a neutral pH range): ~0.008 mg/mL (≈ 0.0245 mM)
solubility ([1]; Japanese Pharmacopoeia, simulated gastric fluid, 1st fluid for dissolution test JP1 (pH 1.2), read-out: solubility at an acidic pH range): ~8.6 mg/mL (≈ 26.3 mM)
solubility ([1]; aqueous buffer, pH 6.8 phosphate buffer, USP, read-out: solubility at a neutral pH range): ~0.011 mg/mL (≈ 0.0337 mM)
solubility ([1]; water, read-out: solubility in water): ~12.5 mg/mL (≈ 38.3 mM)
Compound: NC(=O)c1cnc2[nH]ccc2c1N[C@@H]1[C@@H]2CC3C[C@H]1C[C@@](O)(C3)C2 [compound A, 4-{[(1R,2s,3S,5s,7s)-5-hydroxy-2-adamantyl]amino}-1H-pyrrolo[2,3-b]pyridine-5-carboxamide]
JAK3 inhibitory activity (Janus kinase 3): superior
